Assay results published in patent US7491521B2 (priority 2004, dated 2009).
Values joined by “and” are separate entries in the source; they are usually repeats but may differ in a detail not shown here. Equal values may be shown once.

What was measured:
[1] = test system: E. coli harboring pUD15; assay type: cell-based
[2] = test system: E. coli harboring pUD15 and pUD16; assay type: cell-based

[Cl-].[Cl-].[Co+2] [CoC12, CoCl2]
optical density of the culture at 600 nm [1]: 2.808 and 2.6955 and 2.330
optical density of the culture at 600 nm [2]: 2.524 and 2.173 and 2.113
